Data reported in ChEMBL document CHEMBL5058646 (2022).

Tests used:
[1] = target: Muscarinic acetylcholine receptor M3 (Homo sapiens) (UniProt P20309); details: Compound concentration 10.0 uM
[2] = target: Bone morphogenetic protein receptor type-2 (Homo sapiens) (UniProt Q13873); experiment: BMPR2 SGC Tm panel (DSF); details: Compound concentration 20.0 uM
[3] = target: Protein archease (Homo sapiens) (UniProt Q8IWT0); details: SUD4, Compound concentration 1.0 uM
[4] = target: T1, Zinc finger and BTB domain-containing protein 24 (Homo sapiens) (UniProt O43167); details: OCI-Ly1, Compound concentration 1.0 uM
T1 sequence (whole entry): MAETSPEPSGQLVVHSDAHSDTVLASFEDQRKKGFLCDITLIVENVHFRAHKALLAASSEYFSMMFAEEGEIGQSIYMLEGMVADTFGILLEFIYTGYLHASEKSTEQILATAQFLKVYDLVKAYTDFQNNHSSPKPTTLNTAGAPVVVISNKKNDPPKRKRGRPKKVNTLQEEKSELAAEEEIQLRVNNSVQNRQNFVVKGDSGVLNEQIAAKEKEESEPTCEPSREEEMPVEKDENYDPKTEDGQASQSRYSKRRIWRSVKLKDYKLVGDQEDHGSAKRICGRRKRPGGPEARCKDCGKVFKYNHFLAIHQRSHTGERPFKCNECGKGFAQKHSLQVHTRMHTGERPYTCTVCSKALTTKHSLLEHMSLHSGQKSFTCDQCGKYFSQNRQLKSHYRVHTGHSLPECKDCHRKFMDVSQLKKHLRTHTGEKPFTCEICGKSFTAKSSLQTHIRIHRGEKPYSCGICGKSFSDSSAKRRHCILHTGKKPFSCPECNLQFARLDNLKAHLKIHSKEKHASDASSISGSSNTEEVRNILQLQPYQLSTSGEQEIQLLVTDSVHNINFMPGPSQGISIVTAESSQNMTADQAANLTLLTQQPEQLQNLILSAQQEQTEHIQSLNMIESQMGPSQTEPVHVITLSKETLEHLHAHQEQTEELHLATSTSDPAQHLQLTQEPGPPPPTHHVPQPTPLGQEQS

[5] = target: Zinc finger and BTB domain-containing protein 17 (Homo sapiens) (UniProt Q13105); details: SUD4, Compound concentration 1.0 uM
[6] = target: Mitogen-activated protein kinase 1 (Homo sapiens) (UniProt P28482); experiment: MAPK1 SGC Tm panel (DSF); details: Compound concentration 20.0 uM
[7] = target: Serine/threonine-protein kinase 38-like (Homo sapiens) (UniProt Q9Y2H1); experiment: STK38L SGC Tm panel (DSF); details: Compound concentration 20.0 uM
[8] = target: Phosphorylase b kinase gamma catalytic chain, liver/testis isoform (Homo sapiens) (UniProt P15735); experiment: PHKG2 SGC Tm panel (DSF); details: Compound concentration 20.0 uM
[9] = target: Ephrin type-A receptor 5 (Homo sapiens) (UniProt P54756); experiment: EPHA5 SGC Tm panel (DSF); details: Compound concentration 20.0 uM
[10] = target: T2, Zinc finger and BTB domain-containing protein 1 (Homo sapiens) (UniProt Q9Y2K1); details: OCI-Ly1, Compound concentration 1.0 uM
T2 sequence (whole entry): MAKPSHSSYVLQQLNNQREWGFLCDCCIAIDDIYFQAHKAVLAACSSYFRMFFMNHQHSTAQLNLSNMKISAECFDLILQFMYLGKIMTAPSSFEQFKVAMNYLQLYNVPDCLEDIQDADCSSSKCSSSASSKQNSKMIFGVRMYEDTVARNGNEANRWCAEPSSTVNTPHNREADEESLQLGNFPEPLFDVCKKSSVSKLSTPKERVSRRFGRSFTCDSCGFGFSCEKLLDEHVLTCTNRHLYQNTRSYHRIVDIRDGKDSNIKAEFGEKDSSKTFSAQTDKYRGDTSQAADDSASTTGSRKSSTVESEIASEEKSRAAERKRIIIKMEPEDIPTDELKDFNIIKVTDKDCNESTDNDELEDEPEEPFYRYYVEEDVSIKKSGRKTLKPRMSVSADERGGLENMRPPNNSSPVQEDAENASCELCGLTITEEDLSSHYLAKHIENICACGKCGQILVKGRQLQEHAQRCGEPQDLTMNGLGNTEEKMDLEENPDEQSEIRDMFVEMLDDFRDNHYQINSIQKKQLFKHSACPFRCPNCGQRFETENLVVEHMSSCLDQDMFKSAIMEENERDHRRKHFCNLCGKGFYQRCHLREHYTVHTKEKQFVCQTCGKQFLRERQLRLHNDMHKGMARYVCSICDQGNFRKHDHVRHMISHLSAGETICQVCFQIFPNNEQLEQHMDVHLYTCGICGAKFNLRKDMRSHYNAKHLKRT

[11] = target: Dual specificity protein kinase CLK1 (Homo sapiens) (UniProt P49759); experiment: CLK1 SGC Tm panel (DSF); details: Compound concentration 20.0 uM
[12] = target: Serine/threonine-protein kinase PAK 4 (Homo sapiens) (UniProt O96013); experiment: PAK4 SGC Tm panel (DSF); details: Compound concentration 20.0 uM
[13] = target: Dual specificity mitogen-activated protein kinase kinase 6 (Homo sapiens) (UniProt P52564); experiment: MAP2K6 SGC Tm panel (DSF); details: Compound concentration 20.0 uM
[14] = target: Zinc finger and BTB domain-containing protein 21 (Homo sapiens) (UniProt Q9ULJ3); details: SUD4, Compound concentration 1.0 uM
[15] = target: Dual specificity mitogen-activated protein kinase kinase 7 (Homo sapiens) (UniProt O14733); experiment: MAP2K7 SGC Tm panel (DSF); details: Compound concentration 20.0 uM
Chain of Dual specificity mitogen-activated protein kinase kinase 7 (Homo sapiens) (O14733 whole entry): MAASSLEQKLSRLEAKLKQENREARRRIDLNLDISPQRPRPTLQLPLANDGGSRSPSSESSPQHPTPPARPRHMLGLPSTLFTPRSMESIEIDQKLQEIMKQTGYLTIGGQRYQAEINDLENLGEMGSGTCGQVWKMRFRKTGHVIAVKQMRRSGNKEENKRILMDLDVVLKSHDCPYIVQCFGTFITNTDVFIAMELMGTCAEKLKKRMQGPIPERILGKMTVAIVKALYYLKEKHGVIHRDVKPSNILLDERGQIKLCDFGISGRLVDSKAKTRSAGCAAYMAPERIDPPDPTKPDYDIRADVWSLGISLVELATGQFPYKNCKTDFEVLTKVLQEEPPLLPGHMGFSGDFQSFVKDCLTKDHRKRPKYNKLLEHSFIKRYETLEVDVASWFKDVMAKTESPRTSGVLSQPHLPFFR

Chain of Zinc finger and BTB domain-containing protein 21 (Homo sapiens) (Q9ULJ3 whole entry, the tested form may be a part): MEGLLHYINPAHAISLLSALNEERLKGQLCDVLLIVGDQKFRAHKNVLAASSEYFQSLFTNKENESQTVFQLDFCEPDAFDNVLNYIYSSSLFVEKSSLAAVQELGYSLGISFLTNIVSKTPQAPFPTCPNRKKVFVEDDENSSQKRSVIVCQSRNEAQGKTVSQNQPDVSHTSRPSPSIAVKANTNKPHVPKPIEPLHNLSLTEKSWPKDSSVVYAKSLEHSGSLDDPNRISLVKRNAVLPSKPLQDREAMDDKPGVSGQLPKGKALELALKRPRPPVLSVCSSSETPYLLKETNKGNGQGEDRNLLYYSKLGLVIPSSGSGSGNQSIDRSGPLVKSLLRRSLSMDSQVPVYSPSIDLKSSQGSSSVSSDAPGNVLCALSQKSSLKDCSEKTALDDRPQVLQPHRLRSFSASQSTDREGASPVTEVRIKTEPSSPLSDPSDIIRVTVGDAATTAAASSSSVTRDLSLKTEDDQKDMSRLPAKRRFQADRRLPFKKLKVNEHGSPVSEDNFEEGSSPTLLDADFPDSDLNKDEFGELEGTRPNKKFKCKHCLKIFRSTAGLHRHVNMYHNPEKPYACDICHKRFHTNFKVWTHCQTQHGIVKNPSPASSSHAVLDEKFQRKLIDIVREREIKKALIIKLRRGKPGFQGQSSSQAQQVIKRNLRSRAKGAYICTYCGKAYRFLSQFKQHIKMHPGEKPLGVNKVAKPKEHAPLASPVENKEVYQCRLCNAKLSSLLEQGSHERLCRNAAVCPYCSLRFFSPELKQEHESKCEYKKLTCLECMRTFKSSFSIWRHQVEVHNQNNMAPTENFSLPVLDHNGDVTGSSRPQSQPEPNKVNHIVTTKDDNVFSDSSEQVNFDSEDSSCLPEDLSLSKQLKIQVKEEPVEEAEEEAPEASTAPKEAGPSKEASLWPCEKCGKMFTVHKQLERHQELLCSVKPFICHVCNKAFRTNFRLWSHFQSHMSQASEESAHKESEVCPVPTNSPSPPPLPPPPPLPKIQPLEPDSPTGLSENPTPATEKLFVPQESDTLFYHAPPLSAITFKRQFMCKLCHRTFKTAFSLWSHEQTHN
Chain of Serine/threonine-protein kinase PAK 4 (Homo sapiens) (O96013 whole entry, looked up): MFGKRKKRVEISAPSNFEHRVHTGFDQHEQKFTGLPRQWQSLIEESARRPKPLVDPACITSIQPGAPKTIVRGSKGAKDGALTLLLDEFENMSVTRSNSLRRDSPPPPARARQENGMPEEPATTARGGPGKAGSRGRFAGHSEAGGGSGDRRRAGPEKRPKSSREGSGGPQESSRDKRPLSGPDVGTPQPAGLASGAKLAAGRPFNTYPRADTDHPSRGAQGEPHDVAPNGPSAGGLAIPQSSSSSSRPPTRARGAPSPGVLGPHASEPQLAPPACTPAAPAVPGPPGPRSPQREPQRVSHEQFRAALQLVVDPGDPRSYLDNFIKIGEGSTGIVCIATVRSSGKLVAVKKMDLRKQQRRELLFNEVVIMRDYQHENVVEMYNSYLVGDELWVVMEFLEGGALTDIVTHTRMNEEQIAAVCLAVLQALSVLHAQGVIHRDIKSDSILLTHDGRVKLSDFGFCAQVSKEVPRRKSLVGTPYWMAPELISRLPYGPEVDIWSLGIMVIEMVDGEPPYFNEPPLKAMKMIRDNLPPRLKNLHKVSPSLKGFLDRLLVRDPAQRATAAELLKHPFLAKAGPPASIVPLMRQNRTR
Chain of Serine/threonine-protein kinase 38-like (Homo sapiens) (Q9Y2H1 2-464 limits assumed): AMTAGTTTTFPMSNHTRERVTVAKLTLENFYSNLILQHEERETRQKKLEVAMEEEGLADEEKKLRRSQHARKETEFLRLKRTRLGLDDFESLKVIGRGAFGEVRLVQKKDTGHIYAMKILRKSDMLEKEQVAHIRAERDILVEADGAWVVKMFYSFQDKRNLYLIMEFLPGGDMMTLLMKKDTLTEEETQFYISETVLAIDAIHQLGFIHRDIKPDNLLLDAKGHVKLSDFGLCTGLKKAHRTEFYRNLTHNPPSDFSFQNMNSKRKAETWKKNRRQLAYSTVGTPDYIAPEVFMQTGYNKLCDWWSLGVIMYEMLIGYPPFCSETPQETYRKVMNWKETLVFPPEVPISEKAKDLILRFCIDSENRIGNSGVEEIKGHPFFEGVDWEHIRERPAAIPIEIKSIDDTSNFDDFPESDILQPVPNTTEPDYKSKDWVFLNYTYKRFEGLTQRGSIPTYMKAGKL
Chain of Dual specificity mitogen-activated protein kinase kinase 6 (Homo sapiens) (P52564 whole entry, the tested form may be a part): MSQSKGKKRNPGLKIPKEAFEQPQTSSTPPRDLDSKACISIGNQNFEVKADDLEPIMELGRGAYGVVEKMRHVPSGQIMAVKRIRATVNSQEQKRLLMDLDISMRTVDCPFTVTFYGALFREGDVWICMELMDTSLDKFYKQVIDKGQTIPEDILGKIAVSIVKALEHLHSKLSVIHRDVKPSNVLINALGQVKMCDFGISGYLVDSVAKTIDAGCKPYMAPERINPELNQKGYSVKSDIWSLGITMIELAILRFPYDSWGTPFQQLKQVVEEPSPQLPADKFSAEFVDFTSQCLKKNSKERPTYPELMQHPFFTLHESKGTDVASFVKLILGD
Chain of Ephrin type-A receptor 5 (Homo sapiens) (P54756 whole entry, the tested form may be a part): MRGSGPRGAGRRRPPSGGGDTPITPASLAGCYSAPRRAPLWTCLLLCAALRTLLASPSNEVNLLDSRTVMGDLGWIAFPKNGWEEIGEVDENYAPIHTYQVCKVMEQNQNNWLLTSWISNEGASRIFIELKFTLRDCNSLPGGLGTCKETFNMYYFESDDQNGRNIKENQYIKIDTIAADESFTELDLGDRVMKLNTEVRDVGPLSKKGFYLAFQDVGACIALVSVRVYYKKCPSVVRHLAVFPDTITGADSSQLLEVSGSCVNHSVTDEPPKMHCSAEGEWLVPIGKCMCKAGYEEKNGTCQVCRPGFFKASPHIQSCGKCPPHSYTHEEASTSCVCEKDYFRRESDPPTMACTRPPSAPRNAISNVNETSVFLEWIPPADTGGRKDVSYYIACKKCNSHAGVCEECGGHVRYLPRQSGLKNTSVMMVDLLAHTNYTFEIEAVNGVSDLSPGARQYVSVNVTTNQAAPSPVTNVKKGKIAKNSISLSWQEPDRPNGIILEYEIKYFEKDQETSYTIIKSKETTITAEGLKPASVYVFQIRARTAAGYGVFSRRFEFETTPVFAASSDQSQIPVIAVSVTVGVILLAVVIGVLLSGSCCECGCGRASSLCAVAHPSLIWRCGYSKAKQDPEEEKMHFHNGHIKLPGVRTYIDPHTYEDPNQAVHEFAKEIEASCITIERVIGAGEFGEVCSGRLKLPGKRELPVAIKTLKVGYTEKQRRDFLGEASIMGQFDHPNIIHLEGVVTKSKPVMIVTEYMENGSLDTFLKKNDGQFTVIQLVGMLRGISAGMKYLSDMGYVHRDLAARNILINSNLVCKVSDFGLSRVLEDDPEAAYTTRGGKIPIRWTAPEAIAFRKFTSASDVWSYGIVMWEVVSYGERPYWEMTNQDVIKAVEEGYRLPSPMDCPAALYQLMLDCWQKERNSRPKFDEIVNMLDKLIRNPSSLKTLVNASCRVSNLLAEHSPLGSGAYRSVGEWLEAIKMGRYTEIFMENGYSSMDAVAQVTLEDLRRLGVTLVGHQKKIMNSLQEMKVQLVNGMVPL
Chain of Protein archease (Homo sapiens) (Q8IWT0 whole entry, the tested form may be a part): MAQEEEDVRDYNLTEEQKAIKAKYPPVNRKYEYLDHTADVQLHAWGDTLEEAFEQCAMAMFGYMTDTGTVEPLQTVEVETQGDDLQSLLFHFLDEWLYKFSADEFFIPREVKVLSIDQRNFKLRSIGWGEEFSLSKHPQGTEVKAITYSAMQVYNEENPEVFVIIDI
Chain of Phosphorylase b kinase gamma catalytic chain, liver/testis isoform (Homo sapiens) (P15735 whole entry, looked up, canonical isoform): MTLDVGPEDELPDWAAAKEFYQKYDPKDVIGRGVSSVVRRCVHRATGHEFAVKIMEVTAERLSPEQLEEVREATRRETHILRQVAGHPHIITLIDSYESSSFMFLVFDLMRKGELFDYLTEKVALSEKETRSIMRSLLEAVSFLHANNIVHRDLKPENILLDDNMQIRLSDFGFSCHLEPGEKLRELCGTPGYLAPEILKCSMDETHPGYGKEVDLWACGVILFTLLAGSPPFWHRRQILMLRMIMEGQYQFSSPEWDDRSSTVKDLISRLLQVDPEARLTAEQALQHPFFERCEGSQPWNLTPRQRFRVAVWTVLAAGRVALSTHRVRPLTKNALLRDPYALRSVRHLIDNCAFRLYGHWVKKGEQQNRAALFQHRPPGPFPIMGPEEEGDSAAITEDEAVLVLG
Chain of Dual specificity protein kinase CLK1 (Homo sapiens) (P49759 whole entry, looked up): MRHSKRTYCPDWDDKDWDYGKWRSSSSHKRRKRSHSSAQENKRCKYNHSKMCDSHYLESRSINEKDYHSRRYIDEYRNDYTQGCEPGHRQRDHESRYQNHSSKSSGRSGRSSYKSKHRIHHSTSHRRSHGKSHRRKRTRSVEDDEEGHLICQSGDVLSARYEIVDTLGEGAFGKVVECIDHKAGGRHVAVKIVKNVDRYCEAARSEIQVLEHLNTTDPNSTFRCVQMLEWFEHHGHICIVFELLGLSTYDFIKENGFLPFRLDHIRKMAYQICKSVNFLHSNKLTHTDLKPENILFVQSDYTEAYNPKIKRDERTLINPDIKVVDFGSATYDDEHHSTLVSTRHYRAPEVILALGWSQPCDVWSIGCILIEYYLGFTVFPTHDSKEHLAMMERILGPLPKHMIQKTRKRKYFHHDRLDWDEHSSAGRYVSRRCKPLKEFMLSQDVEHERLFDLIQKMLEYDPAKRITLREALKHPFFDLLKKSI

C[C@@H]1CN(c2ncc(Cl)c(Nc3ccc4c(c3)n(CCC(C)(C)O)c(=O)n4C)n2)C[C@H](C)C1(F)F
inactive: inhibition [1] 12% | Tm [2] 51 °C | LogFC [3] 0.0264 | LogFC [4] -0.111 | LogFC [5] -0.0472 | Tm [6] 56 °C | Tm [7] 47 °C | Tm [8] 46 °C | Tm [9] 44 °C | LogFC [10] -0.0612 | Tm [11] 36 °C | Tm [12] 46 °C | Tm [13] 45 °C | LogFC [14] 0.0189 | Tm [15] 44 °C
